Source: ChEMBL document CHEMBL4507317, “Data for DCP probe BAY-899” (2021)

How the values were obtained:
[1] = target: Cyclin-dependent kinase 4 (Homo sapiens) (UniProt P11802); conditions: Compound concentration 1000.0 nM
[2] = target: Protein kinase C iota type (Homo sapiens) (UniProt P41743); conditions: Compound concentration 1000.0 nM
[3] = test system: Epidermal growth factor receptor (Homo sapiens), P00533 [UNDEFINED MUTATION]; conditions: Compound concentration 1000.0 nM
[4] = target: Cyclin-dependent kinase 17 (Homo sapiens) (UniProt Q00537); conditions: Compound concentration 1000.0 nM
[5] = target: ALK tyrosine kinase receptor (Homo sapiens) (UniProt Q9UM73); conditions: Compound concentration 1000.0 nM
[6] = test system: Tyrosine-protein kinase ABL1 (Homo sapiens), P00519 [Y253F]; conditions: Compound concentration 1000.0 nM
[7] = target: T1, Muscarinic acetylcholine receptor M4 (Homo sapiens) (UniProt P08173); conditions: Compound concentration 10.0 uM
T1 sequence (whole entry): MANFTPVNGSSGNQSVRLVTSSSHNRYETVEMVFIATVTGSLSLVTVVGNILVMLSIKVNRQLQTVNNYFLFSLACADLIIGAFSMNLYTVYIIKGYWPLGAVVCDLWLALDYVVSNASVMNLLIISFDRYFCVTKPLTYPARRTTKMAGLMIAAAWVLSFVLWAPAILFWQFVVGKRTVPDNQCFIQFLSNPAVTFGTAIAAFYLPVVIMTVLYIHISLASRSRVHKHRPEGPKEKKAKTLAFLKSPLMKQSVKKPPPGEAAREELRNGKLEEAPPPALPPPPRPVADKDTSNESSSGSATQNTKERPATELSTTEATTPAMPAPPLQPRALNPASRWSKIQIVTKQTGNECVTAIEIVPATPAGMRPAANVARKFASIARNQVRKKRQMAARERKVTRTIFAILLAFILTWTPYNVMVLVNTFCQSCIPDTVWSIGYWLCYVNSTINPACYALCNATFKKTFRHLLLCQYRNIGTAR

[8] = target: Serine/threonine-protein kinase SIK1 (Homo sapiens) (UniProt P57059); conditions: Compound concentration 1000.0 nM
[9] = target: Serine/threonine-protein kinase RIO2 (Homo sapiens) (UniProt Q9BVS4); conditions: Compound concentration 1000.0 nM
[10] = target: Ribosomal protein S6 kinase alpha-5 (Homo sapiens) (UniProt O75582); conditions: Compound concentration 1000.0 nM
[11] = target: Protein kinase C theta type (Homo sapiens) (UniProt Q04759); conditions: Compound concentration 1000.0 nM
[12] = target: Ephrin type-A receptor 5 (Homo sapiens) (UniProt P54756); conditions: Compound concentration 1000.0 nM
[13] = test system: Tyrosine-protein kinase ABL1 (Homo sapiens), P00519 [H396P]; conditions: Compound concentration 1000.0 nM
[14] = target: Cyclin-dependent kinase 13 (Homo sapiens) (UniProt Q14004); conditions: Compound concentration 1000.0 nM
[15] = target: Serine/threonine-protein kinase D3 (Homo sapiens) (UniProt O94806); conditions: Compound concentration 1000.0 nM
[16] = target: Dual specificity tyrosine-phosphorylation-regulated kinase 2 (Homo sapiens) (UniProt Q92630); conditions: Compound concentration 1000.0 nM
[17] = target: Mitogen-activated protein kinase kinase kinase kinase 1 (Homo sapiens) (UniProt Q92918); conditions: Compound concentration 1000.0 nM
[18] = target: Mast/stem cell growth factor receptor Kit (Homo sapiens) (UniProt P10721); conditions: Compound concentration 1000.0 nM
[19] = target: Mu-type opioid receptor (Homo sapiens) (UniProt P35372); conditions: Compound concentration 10.0 uM
[20] = target: Tyrosine-protein kinase Fgr (Homo sapiens) (UniProt P09769); conditions: Compound concentration 1000.0 nM
[21] = target: Casein kinase I isoform gamma-1 (Homo sapiens) (UniProt Q9HCP0); conditions: Compound concentration 1000.0 nM
[22] = target: Serine/threonine-protein kinase 3 (Homo sapiens) (UniProt Q13188); conditions: Compound concentration 1000.0 nM
[23] = target: Macrophage colony-stimulating factor 1 receptor (Homo sapiens) (UniProt P07333); conditions: Compound concentration 1000.0 nM
[24] = target: G protein-coupled receptor kinase 3 (Homo sapiens) (UniProt P35626); conditions: Compound concentration 1000.0 nM
[25] = target: Mitogen-activated protein kinase 10 (Homo sapiens) (UniProt P53779); conditions: Compound concentration 1000.0 nM
[26] = target: Fibroblast growth factor receptor 3 (Homo sapiens) (UniProt P22607); conditions: Compound concentration 1000.0 nM
[27] = target: Serine/threonine-protein kinase pim-2 (Homo sapiens) (UniProt Q9P1W9); conditions: Compound concentration 1000.0 nM
[28] = target: Rhodopsin kinase GRK7 (Homo sapiens) (UniProt Q8WTQ7); conditions: Compound concentration 1000.0 nM
[29] = target: Tyrosine-protein kinase Tec (Homo sapiens) (UniProt P42680); conditions: Compound concentration 1000.0 nM
[30] = target: Cyclin-dependent kinase-like 1 (Homo sapiens) (UniProt Q00532); conditions: Compound concentration 1000.0 nM
[31] = target: Proto-oncogene tyrosine-protein kinase Src (Homo sapiens) (UniProt P12931); conditions: Compound concentration 1000.0 nM
[32] = target: Macrophage-stimulating protein receptor (Homo sapiens) (UniProt Q04912); conditions: Compound concentration 1000.0 nM
[33] = test system: Receptor-type tyrosine-protein kinase FLT3 (Homo sapiens), P36888 [UNDEFINED MUTATION]; conditions: Compound concentration 1000.0 nM
[34] = target: Serine/threonine-protein kinase MARK2 (Homo sapiens) (UniProt Q7KZI7); conditions: Compound concentration 1000.0 nM
[35] = target: Serine/threonine-protein kinase Nek4 (Homo sapiens) (UniProt P51957); conditions: Compound concentration 1000.0 nM
[36] = target: Phosphatidylinositol 4-phosphate 5-kinase type-1 gamma (Homo sapiens) (UniProt O60331); conditions: Compound concentration 1000.0 nM
[37] = test system: Tyrosine-protein kinase ABL1 (Homo sapiens), P00519 [Q252H]; conditions: Compound concentration 1000.0 nM
[38] = target: Serine/threonine-protein kinase Sgk2 (Homo sapiens) (UniProt Q9HBY8); conditions: Compound concentration 1000.0 nM
[39] = target: Homeodomain-interacting protein kinase 2 (Homo sapiens) (UniProt Q9H2X6); conditions: Compound concentration 1000.0 nM

Macrophage-stimulating protein receptor (Homo sapiens), sequence (Q04912 25-304 limits assumed): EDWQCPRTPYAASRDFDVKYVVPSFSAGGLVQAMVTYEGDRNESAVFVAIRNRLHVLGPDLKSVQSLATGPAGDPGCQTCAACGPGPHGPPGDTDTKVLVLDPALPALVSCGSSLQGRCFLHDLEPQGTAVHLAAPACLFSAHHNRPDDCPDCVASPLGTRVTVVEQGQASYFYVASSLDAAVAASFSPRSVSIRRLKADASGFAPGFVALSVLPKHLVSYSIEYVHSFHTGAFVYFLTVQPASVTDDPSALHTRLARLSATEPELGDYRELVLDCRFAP
Macrophage-stimulating protein receptor (Homo sapiens), sequence (Q04912 310-1400 limits assumed): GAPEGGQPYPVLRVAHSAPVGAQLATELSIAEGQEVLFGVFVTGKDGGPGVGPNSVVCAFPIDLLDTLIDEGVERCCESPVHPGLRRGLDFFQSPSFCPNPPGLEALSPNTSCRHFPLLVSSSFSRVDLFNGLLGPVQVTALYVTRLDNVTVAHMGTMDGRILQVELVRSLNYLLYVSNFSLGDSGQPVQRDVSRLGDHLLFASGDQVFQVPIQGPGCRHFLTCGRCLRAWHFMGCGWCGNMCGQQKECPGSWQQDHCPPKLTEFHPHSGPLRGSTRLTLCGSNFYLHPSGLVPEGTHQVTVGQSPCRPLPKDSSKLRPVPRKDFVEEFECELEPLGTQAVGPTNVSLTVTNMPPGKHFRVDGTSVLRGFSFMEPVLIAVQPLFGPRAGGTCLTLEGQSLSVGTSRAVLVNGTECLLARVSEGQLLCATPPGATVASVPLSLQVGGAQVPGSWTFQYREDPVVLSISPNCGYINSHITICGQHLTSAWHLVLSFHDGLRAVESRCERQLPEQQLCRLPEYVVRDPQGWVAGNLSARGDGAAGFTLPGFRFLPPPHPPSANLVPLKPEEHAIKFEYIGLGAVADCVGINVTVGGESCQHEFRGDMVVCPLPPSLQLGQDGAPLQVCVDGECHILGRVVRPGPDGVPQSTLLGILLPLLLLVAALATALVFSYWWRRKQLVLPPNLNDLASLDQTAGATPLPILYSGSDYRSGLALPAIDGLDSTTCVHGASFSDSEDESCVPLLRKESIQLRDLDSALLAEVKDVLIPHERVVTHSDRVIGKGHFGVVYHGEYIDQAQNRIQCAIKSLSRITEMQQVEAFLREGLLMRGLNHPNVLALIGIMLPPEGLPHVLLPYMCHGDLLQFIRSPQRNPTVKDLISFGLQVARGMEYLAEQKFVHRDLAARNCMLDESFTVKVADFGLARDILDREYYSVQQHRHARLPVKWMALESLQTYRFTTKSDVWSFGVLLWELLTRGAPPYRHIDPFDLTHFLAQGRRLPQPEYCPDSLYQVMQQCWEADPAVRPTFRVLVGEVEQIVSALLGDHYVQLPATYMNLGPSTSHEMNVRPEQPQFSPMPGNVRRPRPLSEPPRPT
Mitogen-activated protein kinase 10 (Homo sapiens), sequence (P53779 whole entry): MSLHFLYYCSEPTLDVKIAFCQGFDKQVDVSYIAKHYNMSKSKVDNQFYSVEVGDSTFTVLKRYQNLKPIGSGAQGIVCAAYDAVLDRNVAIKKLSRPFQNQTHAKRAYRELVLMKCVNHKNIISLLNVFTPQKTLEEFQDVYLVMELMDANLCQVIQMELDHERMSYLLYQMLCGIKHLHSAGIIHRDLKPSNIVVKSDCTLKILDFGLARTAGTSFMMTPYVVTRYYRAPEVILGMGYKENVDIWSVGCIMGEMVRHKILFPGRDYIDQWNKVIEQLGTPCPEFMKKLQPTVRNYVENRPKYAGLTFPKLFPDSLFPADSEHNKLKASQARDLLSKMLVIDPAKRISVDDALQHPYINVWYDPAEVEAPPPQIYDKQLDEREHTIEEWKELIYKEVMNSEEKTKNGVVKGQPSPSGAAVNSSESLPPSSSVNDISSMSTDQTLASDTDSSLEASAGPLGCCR
Ribosomal protein S6 kinase alpha-5 (Homo sapiens), sequence (O75582 whole entry, looked up): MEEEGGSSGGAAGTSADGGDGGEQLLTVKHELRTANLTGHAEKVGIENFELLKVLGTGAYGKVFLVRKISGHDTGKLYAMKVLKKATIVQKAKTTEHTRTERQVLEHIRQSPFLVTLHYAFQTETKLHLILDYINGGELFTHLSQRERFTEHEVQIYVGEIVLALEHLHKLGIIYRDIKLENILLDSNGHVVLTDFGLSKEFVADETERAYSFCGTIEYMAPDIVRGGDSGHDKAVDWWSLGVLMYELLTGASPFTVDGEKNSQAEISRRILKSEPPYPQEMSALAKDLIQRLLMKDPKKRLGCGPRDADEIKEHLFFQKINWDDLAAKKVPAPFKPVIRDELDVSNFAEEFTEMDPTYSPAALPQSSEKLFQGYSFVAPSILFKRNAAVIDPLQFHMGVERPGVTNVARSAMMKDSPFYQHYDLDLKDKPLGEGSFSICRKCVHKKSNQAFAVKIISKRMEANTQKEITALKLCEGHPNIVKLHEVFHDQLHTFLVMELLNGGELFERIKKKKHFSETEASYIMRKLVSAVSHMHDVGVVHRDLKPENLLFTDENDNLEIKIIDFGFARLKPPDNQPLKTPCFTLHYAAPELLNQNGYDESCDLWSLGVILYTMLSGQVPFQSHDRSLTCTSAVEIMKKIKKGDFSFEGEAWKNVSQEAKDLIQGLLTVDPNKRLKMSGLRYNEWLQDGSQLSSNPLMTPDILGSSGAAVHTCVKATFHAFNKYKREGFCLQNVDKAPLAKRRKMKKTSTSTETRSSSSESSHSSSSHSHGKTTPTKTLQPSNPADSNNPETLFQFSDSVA
Epidermal growth factor receptor (Homo sapiens), P00533 [UNDEFINED MUTATION], sequence (P00533 whole entry, looked up, change not shown): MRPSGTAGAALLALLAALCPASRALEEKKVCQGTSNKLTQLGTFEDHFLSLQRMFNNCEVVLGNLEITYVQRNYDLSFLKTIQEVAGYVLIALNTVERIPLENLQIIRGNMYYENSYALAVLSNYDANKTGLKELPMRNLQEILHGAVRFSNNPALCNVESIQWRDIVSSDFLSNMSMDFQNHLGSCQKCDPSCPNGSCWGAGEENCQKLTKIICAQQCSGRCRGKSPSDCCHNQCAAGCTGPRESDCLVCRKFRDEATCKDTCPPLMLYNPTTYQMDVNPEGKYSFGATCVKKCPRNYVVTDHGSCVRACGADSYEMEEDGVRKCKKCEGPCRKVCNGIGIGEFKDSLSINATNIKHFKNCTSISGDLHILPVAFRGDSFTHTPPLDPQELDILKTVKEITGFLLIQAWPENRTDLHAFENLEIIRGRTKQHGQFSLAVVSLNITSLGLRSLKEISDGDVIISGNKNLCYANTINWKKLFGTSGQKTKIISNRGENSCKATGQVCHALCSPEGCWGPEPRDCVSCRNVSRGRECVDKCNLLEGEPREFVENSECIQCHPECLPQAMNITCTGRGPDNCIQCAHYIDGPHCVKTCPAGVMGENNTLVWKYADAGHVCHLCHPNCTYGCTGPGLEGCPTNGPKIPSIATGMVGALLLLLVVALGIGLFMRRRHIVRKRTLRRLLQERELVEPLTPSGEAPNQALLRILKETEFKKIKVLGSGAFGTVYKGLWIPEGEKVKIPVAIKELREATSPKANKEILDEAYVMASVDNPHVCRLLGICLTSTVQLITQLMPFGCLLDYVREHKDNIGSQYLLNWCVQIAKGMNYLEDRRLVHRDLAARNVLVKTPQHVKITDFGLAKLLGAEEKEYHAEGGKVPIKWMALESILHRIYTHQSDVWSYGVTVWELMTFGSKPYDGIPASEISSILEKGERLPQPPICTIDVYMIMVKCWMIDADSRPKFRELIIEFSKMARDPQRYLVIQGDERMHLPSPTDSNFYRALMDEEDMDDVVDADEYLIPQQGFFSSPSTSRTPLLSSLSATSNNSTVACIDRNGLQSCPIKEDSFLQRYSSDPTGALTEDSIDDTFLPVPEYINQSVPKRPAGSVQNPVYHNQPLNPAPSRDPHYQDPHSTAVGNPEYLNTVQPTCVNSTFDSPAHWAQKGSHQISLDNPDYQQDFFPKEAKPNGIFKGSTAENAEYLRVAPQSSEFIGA
Mu-type opioid receptor (Homo sapiens), sequence (P35372 whole entry): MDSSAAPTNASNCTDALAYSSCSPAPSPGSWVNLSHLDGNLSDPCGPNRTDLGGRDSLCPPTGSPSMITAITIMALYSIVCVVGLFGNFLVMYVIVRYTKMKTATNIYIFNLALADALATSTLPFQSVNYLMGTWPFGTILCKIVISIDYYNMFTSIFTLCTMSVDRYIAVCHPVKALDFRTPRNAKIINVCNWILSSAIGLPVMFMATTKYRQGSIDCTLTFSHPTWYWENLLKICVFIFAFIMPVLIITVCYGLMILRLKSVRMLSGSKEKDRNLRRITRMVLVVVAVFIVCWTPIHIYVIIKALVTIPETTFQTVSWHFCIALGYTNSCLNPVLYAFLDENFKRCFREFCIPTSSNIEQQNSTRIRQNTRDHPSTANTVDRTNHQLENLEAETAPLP
Protein kinase C iota type (Homo sapiens), sequence (P41743 whole entry): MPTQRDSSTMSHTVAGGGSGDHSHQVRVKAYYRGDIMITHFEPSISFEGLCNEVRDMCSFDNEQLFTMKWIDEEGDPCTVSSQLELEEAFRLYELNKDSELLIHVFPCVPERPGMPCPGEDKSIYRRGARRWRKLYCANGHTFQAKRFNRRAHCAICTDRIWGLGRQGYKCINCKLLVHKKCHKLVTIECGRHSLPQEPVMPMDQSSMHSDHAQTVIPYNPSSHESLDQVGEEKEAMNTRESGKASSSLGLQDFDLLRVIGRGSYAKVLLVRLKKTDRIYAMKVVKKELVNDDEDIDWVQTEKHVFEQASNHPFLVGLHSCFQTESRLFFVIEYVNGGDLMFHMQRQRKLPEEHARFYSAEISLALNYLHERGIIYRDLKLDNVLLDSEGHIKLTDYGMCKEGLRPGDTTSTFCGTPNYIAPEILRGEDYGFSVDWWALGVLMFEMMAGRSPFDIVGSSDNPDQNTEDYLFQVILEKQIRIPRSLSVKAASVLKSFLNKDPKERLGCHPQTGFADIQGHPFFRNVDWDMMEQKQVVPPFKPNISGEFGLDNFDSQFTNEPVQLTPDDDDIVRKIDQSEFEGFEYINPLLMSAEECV

O=C(Nc1ccc(Oc2ccc(F)cc2)cc1)N1CCc2ncccc2[C@H]1c1ccc(F)cc1 [BAY-897]
inactive: residual activity [1] 96% | residual activity [2] 100% | residual activity [3] 80% | residual activity [4] 96% | residual activity [5] 100% | residual activity [6] 82% | inhibition [7] 9.29% | residual activity [8] 99% | residual activity [9] 94% | residual activity [10] 95% | residual activity [11] 95% | residual activity [12] 100% | residual activity [13] 98% | residual activity [14] 100% | residual activity [15] 98% | residual activity [16] 84% | residual activity [17] 100% | residual activity [18] 91% | inhibition [19] 37.1% | residual activity [20] 100% | residual activity [21] 90% | residual activity [22] 94% | residual activity [23] 95% | residual activity [24] 95% | residual activity [25] 82% | residual activity [26] 83% | residual activity [27] 93% | residual activity [28] 100% | residual activity [29] 86% | residual activity [30] 97% | residual activity [31] 91% | residual activity [32] 98% | residual activity [33] 99% | residual activity [34] 82% | residual activity [35] 94% | residual activity [36] 96% | residual activity [37] 90% | residual activity [38] 100% | residual activity [39] 79%

O=C(Nc1cnc(Oc2ccc(F)cc2)nc1)N1CCc2ncccc2[C@@H]1c1ccc(F)cc1 [BAY-899]
inactive: residual activity [1] 100% | residual activity [2] 98% | residual activity [3] 70% | residual activity [4] 97% | residual activity [5] 99% | residual activity [6] 100% | inhibition [7] 22.8% | residual activity [8] 88% | residual activity [9] 96% | residual activity [10] 85% | residual activity [11] 94% | residual activity [12] 100% | residual activity [13] 97% | residual activity [14] 100% | residual activity [15] 84% | residual activity [16] 81% | residual activity [17] 100% | residual activity [18] 81% | inhibition [19] 28.1% | residual activity [20] 100% | residual activity [21] 99% | residual activity [22] 100% | residual activity [23] 93% | residual activity [24] 96% | residual activity [25] 88% | residual activity [26] 89% | residual activity [27] 94% | residual activity [28] 100% | residual activity [29] 89% | residual activity [30] 100% | residual activity [31] 93% | residual activity [32] 100% | residual activity [33] 92% | residual activity [34] 90% | residual activity [35] 79% | residual activity [36] 100% | residual activity [37] 91% | residual activity [38] 79% | residual activity [39] 91%
